Reference: US20240218023A1, “CYCLIC PEPTIDE-N-ACETYLGALACTOSAMINE (GALNAC) CONJUGATES FOR DRUG DELIVERY TO LIVER CELLS” (MICROBIO (SHANGHAI) CO., LTD., priority 2021, published 2024)
Square brackets hold non-standard residues; d marks the D form. Side chains are listed from the residue outwards. * marks the point of attachment. Gal‑1 = GalNAc linker: 5-(GalNAc-oxy)pentanoic acid (3-acetamido-4,5-diacetoxy-6-(acetoxymethyl)tetrahydropyran-2-yl-oxy)pentanoic acid; Gal‑3 = GalNAc linker: 4-(GalNAc-oxy)butanoic acid (3-acetamido-4,5-diacetoxy-6-(acetoxymethyl)tetrahydropyran-2-yl-oxy)butanoic acid; 5FAM = O=C1OC2(c3ccc(O)cc3Oc3cc(O)ccc32)c2ccc(C(=O)*)cc21; Linker2 = 6-aminohexyl amide linker; GalNAc = N-acetylgalactosamine

B1: 5-FAM-CPMB-0034 (peptide)
peptide: KEKGKG
modifications: head-to-tail cyclic; D-Glu; each Lys side chain carries GalNAc via linker Gal-4; D-Glu side chain carries Linker2 with 5-FAM
B2: 5-FAM-CPMB-0025 (peptide)
peptide: KEKGKG
modifications: head-to-tail cyclic; D-Lys at the three Lys positions and D-Glu; each D-Lys side chain carries GalNAc via linker Gal-5; D-Glu side chain carries Linker2 with 5-FAM
B3: 5-FAM-CPMB-0035 (peptide)
peptide: KEKGKG
modifications: head-to-tail cyclic; D-Glu; each Lys side chain carries GalNAc via linker Gal-5; D-Glu side chain carries Linker2 with 5-FAM

Legend:
HepG2 cells = experiment: Cellular uptake / binding of FAM-labeled ligands to HepG2 cells (flow cytometry, proportion of FAM positive cells); type: cell-based, human; conditions: for Efficiency (%) of cellular uptake (percentage of ligand-bound HepG2 cells): 24 h
Description: The human hepatocellular carcinoma (HepG2) cell line was purchased from Shanghai Zhong Qiao Xin Zhou Biotechnology Co., Ltd. and maintained in minimum essential medium (Gibco, ThermoFisher Scientific, USA) with 10% fetal bovine serum (Gibco, ThermoFisher Scientific, USA), 200 units/mL penicillin plus 200 units/mL streptomycin at 37° C. with 5% CO2.
Cells were seeded in 24-well plates with a density of 1.5×10^5 cells per well and incubated under 37° C., 5% CO2. After 18 h of incubation, media were replaced to MEM with 2% FBS and FAM-labeled ligands were added with final concentrations of 1.6, 8, 40 or 200 nM. After 24 h of incubation, cells were washed twice with 1×PBS and analyzed by LSRFortessa (BD Biosciences, NJ, USA). The binding efficiency was evaluated by the proportion of FAM positive cells.
HepG2 cell was treated by 14 cyclic peptide-tri-GalNAc ligand variants with serial diluted concentration of 1.6, 8, 40 or 200 nM. Commercialized tri-GalNAc used in Givosirna was used as positive control and cyclic peptide w/o tri-GalNAc was negative control. […] Equilibrium dissociation constant (kd) for 5-FAM-CPMB-0013 (ID013), 5-FAM-CPMB-0023 (ID023), 5-FAM-CPMB-0035 (ID035) and commercialized tri-GalNAC were 7.0, 8.6, 5.7 and 18 nM, respectively.

[1] = target: asialoglycoprotein receptor (ASGPR) on HepG2 cells (human) (UniProt P07306); experiment: flow cytometry, % FAM-positive HepG2 cells after 24 h with 40 nM ligand
[2] = target: asialoglycoprotein receptor (ASGPR) on HepG2 cells (human) (UniProt P07306); experiment: flow cytometry, % FAM-positive HepG2 cells after 24 h with 1.6 nM ligand
[3] = target: asialoglycoprotein receptor (ASGPR) on HepG2 cells (human) (UniProt P07306); experiment: flow cytometry, % FAM-positive HepG2 cells after 24 h with 200 nM ligand
[4] = target: asialoglycoprotein receptor (ASGPR) on HepG2 cells (human) (UniProt P07306); experiment: flow cytometry, % FAM-positive HepG2 cells after 24 h with 8 nM ligand
[5] = target: asialoglycoprotein receptor (ASGPR) on HepG2 cells (human) (UniProt P07306); experiment: flow cytometry titration on HepG2 cells (% FAM-positive cells, 1.6-200 nM, 24 h)

Chain of asialoglycoprotein receptor (ASGPR) on HepG2 cells (human) (P07306 whole entry, chain 1 of 2): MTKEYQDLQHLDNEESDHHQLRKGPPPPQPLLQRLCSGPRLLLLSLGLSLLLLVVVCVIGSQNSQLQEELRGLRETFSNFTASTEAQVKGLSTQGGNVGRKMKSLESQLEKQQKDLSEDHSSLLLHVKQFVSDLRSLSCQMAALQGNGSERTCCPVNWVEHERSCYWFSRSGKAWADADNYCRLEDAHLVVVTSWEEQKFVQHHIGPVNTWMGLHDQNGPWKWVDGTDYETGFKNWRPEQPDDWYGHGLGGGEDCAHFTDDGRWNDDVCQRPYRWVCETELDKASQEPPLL
Chain of asialoglycoprotein receptor (ASGPR) on HepG2 cells (human) (P07307 whole entry, chain 2 of 2, further chain): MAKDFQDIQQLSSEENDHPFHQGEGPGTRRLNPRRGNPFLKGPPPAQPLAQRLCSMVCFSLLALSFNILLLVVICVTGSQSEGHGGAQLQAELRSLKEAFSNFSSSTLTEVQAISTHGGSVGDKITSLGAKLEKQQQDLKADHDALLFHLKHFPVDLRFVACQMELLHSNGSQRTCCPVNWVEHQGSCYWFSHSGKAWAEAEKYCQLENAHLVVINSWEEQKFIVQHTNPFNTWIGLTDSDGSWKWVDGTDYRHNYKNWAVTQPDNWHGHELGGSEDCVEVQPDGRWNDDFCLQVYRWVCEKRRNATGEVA

Molecule	Efficiency (%) of cellular uptake (percentage of ligand-bound HepG2 cells) (HepG2 cells; 1.6 nM ligand, HepG2) [%]	Efficiency (%) of cellular uptake (percentage of ligand-bound HepG2 cells) (HepG2 cells; 8 nM ligand, HepG2) [%]	Efficiency (%) of cellular uptake (percentage of ligand-bound HepG2 cells) (HepG2 cells; 40 nM ligand, HepG2) [%]	Efficiency (%) of cellular uptake (percentage of ligand-bound HepG2 cells) (HepG2 cells; 200 nM ligand, HepG2) [%]	Kd (HepG2 cells; HepG2 cells, read-out: Equilibrium dissociation constant (kd)) [nM]	binding ability as compared to others and commercialized tri-GalNAc (HepG2 cells; among 14 variants, HepG2)	Efficiency (%) (proportion of FAM positive cells) [1]	Efficiency (%) (proportion of FAM positive cells) [2]	Efficiency (%) (proportion of FAM positive cells) [3]	Efficiency (%) (proportion of FAM positive cells) [4]	Kd [5] [nM]
5-FAM-CPMB-0011: CPS-001 cyclic peptide scaffold, Gal-1 GalNAc linker, 5-FAM label; FIG. 14A (KEKGKG; cyclised or stapled)	3.0	20.1	67.7	94.2							
5-FAM-CPMB-0012: CPS-001 cyclic peptide scaffold, Gal-2 GalNAc linker, 5-FAM label; FIG. 14B (KEKGKG; not fully specified; cyclised or stapled)	1.2	19.6	74.2	95.9							
5-FAM-CPMB-0014: CPS-001 cyclic peptide scaffold, Gal-4 GalNAc linker, 5-FAM label; FIG. 14D (KEKGKG; cyclised or stapled)	2.3	24.4	71.0	96.5							
5-FAM-CPMB-0015: CPS-001 cyclic peptide scaffold, Gal-5 GalNAc linker, 5-FAM label; FIG. 14E (KEKGKG; cyclised or stapled)	16.3	36.3	89.6	99							
5-FAM-CPMB-0021: CPS-002 cyclic peptide scaffold, Gal-1 GalNAc linker, 5-FAM label; FIG. 14F (KEKGKG; D-residues; cyclised or stapled)	6.8	46.1	88.7	98.8							
5-FAM-CPMB-0025: CPS-002 cyclic peptide scaffold, Gal-5 GalNAc linker, 5-FAM label; FIG. 14H (KEKGKG; D-residues; cyclised or stapled)	1.6	30	83.1	98.2							
5-FAM-CPMB-0031-Ac: negative control, cyclic peptide w/o tri-GalNAc; CPS-003, Gal-1; FIG. 14R (KEKGKG; D-residues; cyclised or stapled) [reference compound]	0.1	0.1	0.2	0.4							
5-FAM-CPMB-0031: CPS-003 cyclic peptide scaffold, Gal-1 GalNAc linker, 5-FAM label; FIG. 14I (KEKGKG; D-residues; cyclised or stapled)	6.0	44.2	87.8	98.6							
5-FAM-CPMB-0033: CPS-003 cyclic peptide scaffold, Gal-3 GalNAc linker, 5-FAM label; FIG. 14J (KEKGKG; D-residues; cyclised or stapled)	5.3	34.5	82.9	98.2							
5-FAM-CPMB-0034: CPS-003 cyclic peptide scaffold, Gal-4 GalNAc linker, 5-FAM label; FIG. 14K (KEKGKG; D-residues; cyclised or stapled)	2.0	25.6	73.6	95.6							
5-FAM-CPMB-0035: CPS-003 cyclic peptide scaffold, Gal-5 GalNAc linker, 5-FAM label; FIG. 14L (KEKGKG; D-residues; cyclised or stapled)	11.1	63.2	95.2	99.5	5.7	relatively higher binding ability					
5-FAM-CPMB-0311: CPS-031 cyclic peptide scaffold, Gal-1 GalNAc linker, 5-FAM label; FIG. 14M (KEKAKA; cyclised or stapled)	3.1	20.8	68.8	93.3							
5-FAM-CPMB-0313: CPS-031 cyclic peptide scaffold, Gal-3 GalNAc linker, 5-FAM label; FIG. 14N (KEKAKA; cyclised or stapled)	3.0	24.6	73.2	95.1							
cyclo(K([Gal‑3-GalNAc])[dE]([Linker2-5FAM])K([Gal‑3-GalNAc])GK([Gal‑3-GalNAc])G) [5-FAM-CPMB-0033]							82.9	5.3	98.2	34.5	
B1							73.6	2	95.6	25.6	
B2							83.1	1.6	98.2	30	
cyclo([dK]([Gal‑3-GalNAc])[dE]([Linker2-5FAM])[dK]([Gal‑3-GalNAc])G[dK]([Gal‑3-GalNAc])G) [5-FAM-CPMB-0023]							91.2	6.2	99.2	47.2	8.6
cyclo(K([Gal‑1-GalNAc])[dE]([Linker2-5FAM])K([Gal‑1-GalNAc])GK([Gal‑1-GalNAc])G) [5-FAM-CPMB-0031]							87.8	6	98.6	44.2	
cyclo([dK]([Gal‑1-GalNAc])[dE]([Linker2-5FAM])[dK]([Gal‑1-GalNAc])G[dK]([Gal‑1-GalNAc])G) [5-FAM-CPMB-0021]							88.7	6.8	98.8	46.1	
B3							95.2	11.1	99.5	63.2	5.7
